{
  "source": "paper PMC7542364",
  "about": "(mBio, 2020)",
  "key": {"[1]": {"biological_target": "HemATN (HemAT sensing domain, residues 1 to 178) (Bacillus subtilis, UniProt O07621)", "sequence (O07621 1-178)": "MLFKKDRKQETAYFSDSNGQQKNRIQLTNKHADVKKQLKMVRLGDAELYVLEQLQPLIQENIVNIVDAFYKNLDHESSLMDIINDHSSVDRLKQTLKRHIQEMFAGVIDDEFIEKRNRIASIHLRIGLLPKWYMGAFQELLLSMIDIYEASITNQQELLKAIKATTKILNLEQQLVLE", "details": "50 uM protein, 3 mM ethanol, modified PBS pH 8.0, 10% D2O, 298 K; heme not involved (UV spectra)"}, "[2]": {"biological_target": "McpBC (McpB cytoplasmic region, residues 305 to 662) (Bacillus subtilis, UniProt P39215)", "sequence (P39215 305-662)": "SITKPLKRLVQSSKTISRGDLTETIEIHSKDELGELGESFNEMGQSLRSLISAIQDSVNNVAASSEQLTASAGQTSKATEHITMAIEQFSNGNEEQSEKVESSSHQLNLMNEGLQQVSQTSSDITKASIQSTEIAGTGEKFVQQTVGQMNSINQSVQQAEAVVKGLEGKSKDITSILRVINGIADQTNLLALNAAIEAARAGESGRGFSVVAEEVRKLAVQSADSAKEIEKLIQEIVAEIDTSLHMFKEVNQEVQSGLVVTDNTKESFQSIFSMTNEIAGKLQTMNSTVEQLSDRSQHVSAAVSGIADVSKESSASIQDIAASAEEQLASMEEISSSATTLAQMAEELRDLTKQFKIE", "details": "50 uM protein, 3 mM ethanol, PBS in D2O pH 7.4, 298 K"}},
  "data": [
    {"smiles": "CCO", "note": "[ethanol]", "values": [
      {"measurement": "STD/1H area ratio, -CH3 (-CH2 0.85)", "setting": "[1]", "result": 0.27},
      {"measurement": "saturation fraction (STD/1H area ratio, -CH3)", "setting": "[2]", "result": 0.23}
    ]}
  ]
}
